Assay [1] deals with Hepatitis C virus. Description: Antiviral activity against HCV 1b in Huh7 cell line upto 10 uM by replicon assay. The format is functional, cell-based. The note with it: Hepacivirus hominis; genotype 1b; Huh-7. On the technique in general: In antiviral work, replicon cells carry a viral genome segment that copies itself.
Assay [2] addresses RNA-directed RNA polymerase (Hepacivirus hominis, UniProt O39930). In words: Inhibitory activity against HCV 1b BK NS5B deltaC21 RNA polymerase. On the set-up: species or system Hepatitis C virus subtype 1b.

pIC50: −log10 of the molar value. The source made the active and inactive calls. The rule behind the calls is not given here.

Chain of RNA-directed RNA polymerase (O39930 whole entry): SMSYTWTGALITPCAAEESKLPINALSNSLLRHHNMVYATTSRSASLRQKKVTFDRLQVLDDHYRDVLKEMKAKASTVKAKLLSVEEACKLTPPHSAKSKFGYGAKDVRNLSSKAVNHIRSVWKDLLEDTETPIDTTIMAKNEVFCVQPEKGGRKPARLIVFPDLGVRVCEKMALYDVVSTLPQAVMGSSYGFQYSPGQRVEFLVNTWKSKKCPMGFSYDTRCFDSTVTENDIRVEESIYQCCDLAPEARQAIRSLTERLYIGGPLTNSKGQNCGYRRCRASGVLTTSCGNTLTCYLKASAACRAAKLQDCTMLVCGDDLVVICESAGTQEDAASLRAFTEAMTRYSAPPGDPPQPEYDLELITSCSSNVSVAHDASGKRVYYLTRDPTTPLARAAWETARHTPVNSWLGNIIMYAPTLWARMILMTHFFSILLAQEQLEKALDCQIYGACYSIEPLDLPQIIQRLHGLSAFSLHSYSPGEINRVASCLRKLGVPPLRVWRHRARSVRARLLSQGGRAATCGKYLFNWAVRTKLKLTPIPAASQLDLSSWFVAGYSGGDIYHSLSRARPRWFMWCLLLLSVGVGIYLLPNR

Take `CC(C)Oc1ccc(CCC2(C3CCCC3)CC(=O)CC(=O)O2)cc1F` (configuration not stated): the outcome in assay [1] was inactive.

With `O=C1CC(=O)OC(CCc2ccc(O)cc2)(C2CCC2)C1` (configuration not stated), in assay [2], the pIC50 (as a rule, the negative decadic logarithm of the IC50, by convention in mol/L) is 4.03. Also, the result in assay [1] was inactive.

Regarding `COc1ccc(CCC2(C3CCCC3)CC(=O)C(Sc3ccc(O)cc3)=C(O)O2)cc1Cl` (configuration not stated), in assay [2], the pIC50 was 6.89. For the same compound, the outcome in assay [1] was inactive.

`O=C1CC(=O)OC(CCc2ccccc2)(C2CCCC2)C1` (configuration not stated): the pIC50 in assay [2] is 4.32. Besides, the outcome in assay [1] was inactive.

The compound `CC(C)c1ccc(CCC2(C3CCCC3)CC(=O)CC(=O)O2)cc1` (configuration not stated) gave a pIC50 in assay [2] of 5.37. The outcome in assay [1] was inactive.

As for `COc1ccc(CCC2(C3CCCC3)CC(=O)CC(=O)O2)cc1F` (configuration not stated), the pIC50 in assay [2] was 6.05. Besides, the outcome in assay [1] was inactive.

The compound `COc1ccc(CCC2(C3CCCC3)CC(=O)C(Sc3ccccc3)=C(O)O2)cc1Cl` (configuration not stated) showed a pIC50 in assay [2] of 6.25. In addition, the result in assay [1] was inactive.

The compound `CCOc1ccc(CCC2(C3CCCC3)CC(=O)CC(=O)O2)cc1` (configuration not stated) had a negative logarithm of the IC50 (pIC50) in assay [2] of 5.54. Also, the result in assay [1] was inactive.

As to `CCCC1(CCc2ccc(OC)cc2)CC(=O)CC(=O)O1` (configuration not stated), the pIC50 in assay [2] is under 4.30. The result in assay [1] was inactive.

For `CC(C)Oc1ccc(CCC2(C3CCCC3)CC(=O)CC(=O)O2)cc1` (configuration not stated), in assay [2], the pIC50 was 5.77. In assay [1], the result was inactive.

In assay [2], `COc1ccc(CCC2(C3CCCC3)CC(=O)CC(=O)O2)cc1` (configuration not stated) gave a pIC50 of 5.01. Also, in assay [1], the outcome was inactive.

The compound `O=C1CC(=O)OC(CCc2ccc(O)cc2)(C2CCCC2)C1` (configuration not stated) gave a pIC50 in assay [2] of 5.09. Further, in assay [1], the outcome was inactive.

`CC(C)c1cccc(CCC2(C3CCCC3)CC(=O)CC(=O)O2)c1` (configuration not stated) showed a pIC50 in assay [2] of 5.74. Moreover, the outcome in assay [1] was inactive.

In turn, `COc1ccc(CCC2(C3CCCC3)CC(=O)C(Sc3nnnn3C)=C(O)O2)cc1Cl` (configuration not stated) had a pIC50 in assay [2] of 6.55. The outcome in assay [1] was inactive.

In assay [2], `Cc1cc(SC2=C(O)OC(CCc3ccc(O)cc3)(C3CCCC3)CC2=O)c(C(C)(C)C)cc1N` (configuration not stated) had a pIC50 of 6.03. Further, the result in assay [1] was inactive.

`O=C1CC(=O)OC(CCc2ccc(O)cc2)(C2CCCCC2)C1` (configuration not stated) had a pIC50 in assay [2] of 4.28. In addition, the outcome in assay [1] was inactive.

In assay [2], `CC1(CCc2ccc(O)cc2)CC(=O)CC(=O)O1` (configuration not stated) had a pIC50 of under 4.00. Besides, the result in assay [1] was inactive.

Regarding `COc1ccc(CCC2(C3CCCC3)CC(=O)CC(=O)O2)cc1Cl` (configuration not stated), the pIC50 in assay [2] is 6.00. Further, the outcome in assay [1] was inactive.

As for `O=C1CC(=O)OC(CCc2cccc(Cl)c2)(C2CCCC2)C1` (configuration not stated), the negative logarithm of the IC50 (pIC50) in assay [2] is 5.30. For the same compound, the outcome in assay [1] was inactive.

The compound `CCOc1ccc(CCC2(C3CCCC3)CC(=O)CC(=O)O2)cc1F` (configuration not stated) gave a pIC50 in assay [2] of 6.10. In assay [1], the result was inactive.

In turn, `CCc1cccc(CCC2(C3CCCC3)CC(=O)CC(=O)O2)c1` (configuration not stated) showed a pIC50 in assay [2] of 5.44. For the same compound, in assay [1], the result was inactive.

With `COc1ccc(CCC2(C3CCCC3)CC(=O)C(Sc3nncn3C)=C(O)O2)cc1Cl` (configuration not stated), the pIC50 in assay [2] is 7.42. The outcome in assay [1] was inactive.

In assay [2], `COc1ccc(CCC2(C3CCCC3)CC(=O)C(Sc3nccn3C)=C(O)O2)cc1Cl` (configuration not stated) gave a pIC50 of 6.85. Moreover, the outcome in assay [1] was inactive.

Regarding `Cc1cccc(CCC2(C3CCCC3)CC(=O)CC(=O)O2)c1` (configuration not stated), the negative logarithm of the IC50 (pIC50) in assay [2] is 4.64. In addition, the outcome in assay [1] was inactive.

(Values after ChEMBL document CHEMBL1149470, “Identification and structure-based optimization of novel dihydropyrones as potent HCV RNA polymerase inhibitors” (Bioorg Med Chem Lett, 2006).)
